Results reported in PMC9654711, “Neuroprotective Action of Coumarin Derivatives through Activation of TRKB-CREB-BDNF Pathway and Reduction of Caspase Activity in Neuronal Cells Expressing Pro-Aggregated Tau Protein” (International Journal of Molecular Sciences, 2022).

How the values were obtained:
[1] = target: T1, TRKB-ECD-His (extracellular domain of TRKB) (Homo sapiens, UniProt Q16620); test: Tryptophan fluorescence quenching assay; details: TRKB-ECD-His 50 nM in PBS; excitation 295 nm, emission 330 nm; compounds 0–1000 nM; read-out: TRKB-ECD binding affinity (KD)
T1 construct: extracellular domain of TRKB (TRKB-ECD) (residues 32–429, XP_016870240); Saccharomyces cerevisiae α-factor secretion signal (N, cleaved yes); made in house; host or cells: Pichia pastoris
Excerpt: The cDNA fragment containing the full-length extracellular domain of TRKB (TRKB-ECD) (residues 32–429, XP_016870240) was amplified from pDONR223-NTRK2 plasmid (Addgene, Watertown, MA, USA) using forward primer 5′-ctcgagaaaagagaggctgaagctTGTCCCACGTCCTGAAATG (XhoI site and Kex2 cleavage of the signal sequence in lowercase letters) and reverse primer 5′-gtcgac[…] (SalI site in lowercase letters). After cloning and sequencing, the TRKB-ECD fragment was excised with XhoI and SalI and subcloned into Pichia expression vector pGAPZα A (Invitrogen). The AvrII-linearized plasmid was then transformed into Pichia pastoris, and stable transformants selected and cultured at 30 °C for 4 days for constitutive expression of recombinant His-tagged TRKB-ECD. The secreted TRKB-ECD-His in cultured medium was purified using Ni-NTA His•Bind resins (Novagen, Madison, WI 53719, USA) according to the supplier’s instructions. Protein purity was examined by Coomassie blue staining of SDS-polyacrylamide gel as well as immunoblotting using anti-His (1:2000; Acris, Herford, Germany) and anti-TRKB (1:1000; Cell Signaling) antibodies.
The interaction between TRKB-ECD-His and LM-031, LMDS-1 or LMDS-2 was determined by tryptophan fluorescence titration. 7,8-DHF (Sigma-Aldrich) was included as a positive control. Tryptophan fluorescence spectra of TRKB-ECD-His (50 nM in PBS) were obtained before and after titration with different concentrations of test compounds (0–1000 nM). The fluorescent quenching was conducted in a cuvette with a 1 cm path length cell by an F-7000 fluorescence spectrophotometer (Hitachi, Tokyo, Japan) at room temperature. The intrinsic fluorescence spectra of TRKB were recorded with excitation wavelength set at 295 nm and emission wavelength in the range 300–400 nm. The dissociation constant (KD) of 7,8-DHF, LM-031, LMDS-1 and LMDS-2 to TRKB was determined by fitting the normalized fluorescence intensity at 330 nm under different concentrations of test compounds using the equation derived from Liu et al.:KD = [P]T (f − 1) + [D]T (1/f − 1), where f is the fractional change, and [P]Tand [D]Tare the total concentration of TRKB-ECD-His protein and test compound, respectively.

[2] = High-content analysis of ΔK280 tauRD-DsRed fluorescence and cell number (folding reporter); assay type: cell-based, human; details: human; induced ΔK280 tauRD-DsRed SH-SY5Y; compounds 2.5–10 µM; read-out: IC50 cytotoxicity based on the cell number analyzed
Description: (§1) On day 1, ∆K280 tauRD-DsRed SH-SY5Y cells were seeded in a 96-well plate (3 × 10^4/well), with retinoic acid (10 µM; Sigma-Aldrich) added to induce neuronal differentiation. […] […] For ROS measurement, dichloro-dihydro-fluorescein diacetate (DCFH-DA, 10 µM; Invitrogen, Carlsbad, CA, USA) was added to the cells on day 8 and incubated at 37 °C for 30 min.

[3] = system: ΔK280 tauRD-DsRed SH-SY5Y cells; test: High-content analysis of neurite outgrowth; assay type: cell-based, human; details: 10 µM
Description: As described, ∆K280 tauRD-DsRed SH-SY5Y cells were seeded in a 24-well plate (5 × 10^4/well) with retinoic acid addition on day 1, treated with tested compounds (10 µM) and ∆K280 tauRD-DsRed expression was induced with doxycycline (2 μg/mL) on day 2. On day 8, after being fixed in 4% paraformaldehyde for 15 min, permeabilized in 0.1% Triton X-100 for 10 min and blocked in 3% bovine serum albumin (BSA) for 20 min, the cells were stained with TUBB3 (neuronal class III β-tubulin) primary antibody (1:1000; BioLegend, San Diego, CA, USA) at 4 °C overnight, followed by goat anti-rabbit Alexa Fluor® 555 secondary antibody (1:1000; Molecular probes) at room temperature for 2 h, with 4′-6-diamidino-2-phenylindole (DAPI, 0.1 µg/mL; Sigma-Aldrich) included for nuclei staining. Neuronal images were captured using the high-content analysis system as described. Neurite total length (μm), processes (primary neurite extensions projecting directly from the cell body) and branching (points at which primary neurites bifurcated) were analyzed using Neurite Outgrowth Application Module (MetaXpress; Molecular Devices). Around 5000 cells were analyzed in each of three independent experiments for each sample.

[4] = DPPH free radical-scavenging assay; details: compounds tested 10–80 μM; DPPH 100 µM; linear interpolation
Description: The potential free radical-scavenging activity of test compounds was assayed using stable free radical 1,1-diphenyl-2-picrylhydrazyl (DPPH) (Sigma-Aldrich). Briefly, kaempferol, LM-031 or LMDS-1 to -4 (10–80 µM) was added to DPPH (100 µM in 99% ethanol). The solution was vortexed for 15 s, left for 30 min at room temperature, the mixture was transferred to a 96-well UV-transparent microplate and the absorbance at 517 nm was measured using a Multiskan^TM GO microplate spectrophotometer (Thermo Fisher Scientific, Waltham, MA, USA). Radical-scavenging activity was calculated using the equation: 1 − (absorbance of sample/absorbance of control) × 100%, and EC50 estimated using the linear interpolation method.

[5] = Oxygen radical antioxidant capacity (ORAC) assay; details: compound at 100 μM
Description: In addition, an oxygen radical antioxidant capacity (ORAC) assay was performed using an OxiSelect™ kit according to the manufacturer’s instruction (Cell Biolabs, San Diego, CA, USA). Briefly, Trolox standards (2.5–50 μM) and samples (4–100 μM) were diluted with 50% acetone. Blank (50% acetone), standards and samples were mixed with fluorescein and incubated at 37 °C for 30 min. Following the free radical initiator 2,2′-azobis(2-methylpropionamidine) dihydrochloride (AAPH), the produced peroxyl radicals (ROO•) quench the fluorescent probe over time. Antioxidants present in the assay block the peroxyl radical oxidation of the fluorescent probe. The course of the reaction was recorded for 60 min, with one measurement every five minutes using a BioTek FLx800 microplate reader. The excitation and emission wavelengths were set at 480 nm and 520 nm, respectively. To quantify the oxygen radical antioxidant activity in a sample, the area under the curve (AUC) for blank, standard and samples was calculated. After subtraction of the blank, the equivalent Trolox concentrations of samples were expressed based on the Trolox standard curve.

[6] = target: T2, E. coli-expressed ΔK280 tauRD protein (Homo sapiens, UniProt P10636, DEL597-597); test: Anti-ΔK280 tauRD aggregation assay (thioflavin T); assay type: biochemical; details: compounds tested 1–10 μM, 20 μM protein, 48 h, linear interpolation, read-out: EC50 for ΔK280 tauRD aggregation inhibition
T2 construct: assessed by using E. coli-expressed ΔK280 tauRD protein; made in house; host or cells: E. coli
Description: Thioflavin T is widely used to visualize and quantify the presence of misfolded amyloid protein aggregates in vitro [74]. The tau aggregation inhibiting potential of Congo red, LM-031 and LMDS-1 to -4 was assessed by using E. coli-expressed ΔK280 tauRD protein [28]. Briefly, purified ΔK280 tauRD protein (20 μM) was incubated with Congo red or coumarin compounds (1–10 μM) in 150 mM NaCl and 20 mM Tris-HCl pH8.0, at 37 °C with shaking for 48 h to form aggregates. Then, thioflavin T (final 5 μM; Acros Organics, Geel, Belgium) was added and incubated for 25 min at room temperature. Fluorescence intensity of samples was recorded at excitation/emission wavelengths of 420/485 nm using an FLx800 microplate reader (BioTek, Winooski, VT, USA). The half maximal effective concentration (EC50) values were calculated by using a linear interpolation method.

p-TRKB (Y516 and Y817) = test: Immunoblot of p-TRKB (Y516 and Y817); assay type: cell-based, human; details: BDNF 100 ng/mL, LMDS-1/2 10 μM; induced untreated 77–83%; Figure 6B
Description: (§2) ∆K280 tauRD-DsRed SH-SY5Y cells in 6-well plates (5 × 10^5/well) were treated with retinoic acid (10 µM) on day 1, followed by LMDS-1 or -2 (10 µM) and doxycycline (2 µg/mL) addition on day 2 as described. ERK inhibitor U0126 or PI3K inhibitor wortmannin (10 μM) (LC Laboratories, Woburn, MA, USA) was added on day 6. On day 8, the cells were collected for BDNF, BCL2, BAX and total/phosphorylated TRKB, ERK, AKT, CREB protein analyses as described.
(§3) ∆K280 tauRD-DsRed SH-SY5Y cells were lysed in buffer containing 50 mM Tris-HCl (pH 8.0), 150 mM NaCl, 1 mM EDTA (pH 8.0), 1 mM EGTA (pH 8.0), 0.1% SDS, 0.5% sodium deoxycholate, 1% Triton X-100 and protease (Sigma-Aldrich)/phosphatase (Roche, Basel, Switzerland) inhibitor cocktails. After two sonications with an interval of 30 min on ice, cell lysates were collected by centrifugation at 14,000× g for 30 min at 4 °C. Protein concentrations were determined using a Bradford assay (Bio-Rad, Hercules, CA, USA). Protein samples (25 µg) were separated by 10–12% SDS-PAGE and transferred to polyvinylidene difluoride (PVDF) membranes (Sigma-Aldrich). After blocking for 2 h with 10% skimmed milk or 5% BSA in 0.1% Tween 20 in Tris-buffered saline (TBST), the membrane was incubated with primary antibody against BDNF (1:500; Santa Cruz, Santa Cruz, CA, USA), BCL2 (1:500; BioVision), BAX (1:500; BioVision), TRKB (1:1000; Cell Signaling, Danvers, MA, USA), p-TRKB (Y516) (1:1000; Cell Signaling), p-TRKB (Y817) (1:1000; Millipore, Billerica, MA, USA), ERK (1:1000; Cell Signaling), p-ERK (T202/Y204) (1:500; Cell Signaling), AKT (1:1000; Cell Signaling), p-AKT (S473) (1:1000; Cell Signaling), CREB (1:1000; Santa Cruz), p-CREB (S133) (1:1000; Millipore), JNK (1:1000; Cell Signaling), p-JNK (T183/Y185) (1:1000; Cell Signaling) or loading control glyceraldehyde-3-phosphate dehydrogenase (GAPDH) (1:1000; MDBio, Taipei, Taiwan). After three washes with TBST, the immune complexes were detected using horseradish peroxidase-conjugated goat anti-mouse or goat anti-rabbit secondary IgG antibody (1:5000, GeneTex, Irvine, CA, USA) and enhanced chemiluminescence substrates luminol and peroxide (Millipore). The primary and secondary antibodies used were diluted with TBST. The chemiluminescent detection was performed on ImageQuant™ LAS 4000mini (GE Healthcare).

[7] = system: ΔK280 tauRD-DsRed SH-SY5Y folding reporter cells; test: High-content analysis of ΔK280 tauRD-DsRed fluorescence and cell number (folding reporter); assay type: cell-based, human; details: BDNF at 100 ng/mL, LMDS-1/2 at 10 μM; untreated = 100%; Figure 6A
Description: as §1

p-CREB (S133) = test: Immunoblot of p-CREB (S133); assay type: cell-based, human; details: BDNF 100 ng/mL, LMDS-1/2 10 μM; induced untreated 72%; Figure 6B
Description: as §2, §3

T2 sequence (P10636 with tags, fused parts or gaps DEL597-597): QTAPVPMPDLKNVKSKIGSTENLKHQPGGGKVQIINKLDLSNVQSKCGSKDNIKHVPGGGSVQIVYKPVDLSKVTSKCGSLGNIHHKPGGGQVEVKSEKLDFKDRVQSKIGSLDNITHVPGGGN
T1 sequence (Q16620 32-429): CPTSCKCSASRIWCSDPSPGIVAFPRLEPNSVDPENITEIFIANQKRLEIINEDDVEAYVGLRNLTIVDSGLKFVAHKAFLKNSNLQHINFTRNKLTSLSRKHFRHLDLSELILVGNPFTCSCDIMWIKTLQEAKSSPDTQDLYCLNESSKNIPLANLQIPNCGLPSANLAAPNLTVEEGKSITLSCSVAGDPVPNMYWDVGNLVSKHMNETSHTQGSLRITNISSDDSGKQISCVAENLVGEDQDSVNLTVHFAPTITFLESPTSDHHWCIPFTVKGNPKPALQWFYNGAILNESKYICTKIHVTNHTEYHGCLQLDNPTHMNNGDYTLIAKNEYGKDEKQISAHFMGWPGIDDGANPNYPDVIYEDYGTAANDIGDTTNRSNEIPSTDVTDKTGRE

Row | Molecule | EC50 [4] [µM] | EC50 [6] [µM] | IC50 at 6 days [2] [µM] | Oxygen radical absorbance capacity, activity equivalent to Trolox [5] [μM Trolox] | other results
1 | O=c1cc(-c2ccccc2)oc2c(O)c(O)ccc12 [7,8-DHF, 7,8-dihydroxyflavone, reference compound] | – | – | – | – | Kd [1]: 0.016 ± 0.0034 µM
2 | Nc1c(/N=N/c2ccc(-c3ccc(/N=N/c4cc(S(=O)(=O)O)c5ccccc5c4N)cc3)cc2)cc(S(=O)(=O)O)c2ccccc12 [Congo red, reference compound] | – | – | 45 | – | Neurite branching ([3]; induced untreated 0.87, uninduced 0.99): 1.00–1.06; Neurite length ([3]; induced untreated 27.2 μm, uninduced 30.9 μm): 30.3–31.5 μm
3 | O=c1c(O)c(-c2ccc(O)cc2)oc2cc(O)cc(O)c12 [Kaempferol, kaempferol, reference compound] | 28 | – | – | – | –
4 | BDNF: Brain-derived neurotrophic factor | – | – | – | – | p-TRKB (Y516/Y817) level (p-TRKB (Y516 and Y817)): 96–104%; DsRed fluorescence intensity [7]: 111–112%; p-CREB level (p-CREB (S133)): 90–95%

More lines, main results first:

Row | EC50 [4] [µM] | EC50 [6] [µM] | Molecule | IC50 at 6 days [2] [µM] | Oxygen radical absorbance capacity, activity equivalent to Trolox [5] [μM Trolox] | other results
5 | 132 | 21 | COc1ccc2cc(C(=O)c3ccccc3)c(=O)oc2c1 [LMDS-3] | 29 | 12 | –
6 | 126 | 14 | CC(=O)Oc1ccc2cc(C(=O)c3ccccc3)c(=O)oc2c1 [LMDS-4] | 25 | 16 | –
